Results from patent US11759651B2, “In vivo visualization and control of pathological changes in neural circuits” (THE REGENTS OF THE UNIVERSITY OF CALIFORNIA, priority 2011, dated 2023).
Read-outs that look alike come from different tables or passages of the source.

How the values were obtained:
APP/PS1 mice = experiment: LTP in the hippocampus; assay type: in vivo, mouse; conditions: APP/PS1-vehicle vs. APP/PS1-LM11A-31, p=0.02, wt-vehicle vs. wt-LM11A-31, NS
APP^L/S mice [1] = experiment: Choline acetyltransferase immunostaining of basal forebrain sections; assay type: in vivo, mouse; conditions: APP^L/S mice treated with LM11A-31
Protocol: Scale bars=25 μm. b, Photomicrograph of choline acetyltransferase-immunostained basal forebrain sections. […] Statistical significance was determined using ANOVA and post-hoc Student-Neuman-Keuls testing.

APPL/S mice = experiment: Object recognition test; assay type: in vivo, mouse; conditions: ANOVA and post-hoc Student-Neuman-Keuls testing
APP^L/S mice [2] = experiment: APP immunolabeling for dystrophic neurites and Thioflavin S staining for amyloid plaques in hippocampus; assay type: in vivo; conditions: APP^L/S mice given vehicle or LM11A-31; transgenic mouse model of AD
[3] = test system: hippocampal network activity; conditions: cited from earlier work
[4] = 10 μM NBQX and 25 μM D-AP5 applied together, stimulus pulse applied to DG, 400 μm-thick ventral hippocampal slice

For `CC[C@H](C)[C@H](N)C(=O)NCCN1CCOCC1` [LM11A-31], the LTP (APP/PS1 mice) was “normalizes LTP”, the “length, volume and branching of cholinergic neurites in the basal forebrain” value (APP^L/S mice [1]) was “increased length, volume, and branching of cholinergic neurites” and the object recognition deficits (APPL/S mice) was “prevented object recognition deficits”. For the same compound, the “dystrophic neurites and amyloid plaque formation in the hippocampus” value (APP^L/S mice [2]) was “rescued significantly”.
In the case of `NC(CCCP(=O)(O)O)C(=O)O` [D-AP5], the VSDI signal [3, 4] is listed as “abolished”.
In the case of `NS(=O)(=O)c1cccc2c1c([N+](=O)[O-])cc1nc(O)c(O)nc12` [NBQX], the VSDI signal [3, 4] is given as “abolished”.
For `COc1ccc(-c2ccc(=N)n(CCCC(=O)O)n2)cc1` [GABAzine], the VSDI signal [3] is given as “confirmed signal extinction”.
